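The compound was tested at five concentrations on cells cultured in 96-well plates, with a 48-hour exposure period. Here, GI50 denotes the concentration required for 50% inhibition of growth.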 The source made the active and inactive calls. Cut-off read from the data, not from the text of the source: active = GI50 up to about 1.1 µM and inactive = higher.
What was measured:
Test in all cases: NCI tumour cell line growth inhibition, 48 h
786-0 = test system: 786-0
A498 = test system: A498
A549 = test system: A549
ACHN = test system: ACHN
CAKI-1 = test system: CAKI-1
COLO 205 = test system: COLO 205
DLD-1 = test system: DLD-1
DMS-114 = test system: DMS-114
DMS-273 = test system: DMS-273
EKVX = test system: EKVX
HCC 2998 = test system: HCC 2998
HCT-116 = test system: HCT-116
HCT-15 = test system: HCT-15
HL-60 = test system: HL-60
HOP-18 = test system: HOP-18
HOP-62 = test system: HOP-62
HOP-92 = test system: HOP-92
HT-29 = test system: HT-29
IGROV-1 = test system: IGROV-1
K562 = test system: K562
KM-20L2 = test system: KM-20L2
KM12 = test system: KM12
LOX IMVI = test system: LOX IMVI
LXFL 529 = test system: LXFL 529
M14 = test system: M14
M19-MEL = test system: M19-MEL
MOLT-4 = test system: MOLT-4
Malme-3M = test system: Malme-3M
NCI-H226 = test system: NCI-H226
NCI-H23 = test system: NCI-H23
NCI-H460 = test system: NCI-H460
NCI-H522 = test system: NCI-H522
OVCAR-3 = test system: OVCAR-3
OVCAR-4 = test system: OVCAR-4
OVCAR-5 = test system: OVCAR-5
OVCAR-8 = test system: OVCAR-8
RPMI-8226 = test system: RPMI-8226
RXF 393 = test system: RXF 393
RXF 631 = test system: RXF 631
SF-268 = test system: SF-268
SF-295 = test system: SF-295
SF-539 = test system: SF-539
SK-MEL-28 = test system: SK-MEL-28
SK-MEL-5 = test system: SK-MEL-5
SK-OV-3 = test system: SK-OV-3
SN12C = test system: SN12C
SNB-19 = test system: SNB-19
SNB-75 = test system: SNB-75
SNB-78 = test system: SNB-78
SR = test system: SR
SW-620 = test system: SW-620
TK-10 = test system: TK-10
U-251 = test system: U-251
UACC-257 = test system: UACC-257
UACC-62 = test system: UACC-62
UO-31 = test system: UO-31
XF498 = test system: XF498
CCRF-CEM = test system: CCRF-CEM

SMILES: Cc1ccc(S(=O)(=O)OC2CS[S+]([O-])CC2OS(=O)(=O)c2ccc(C)cc2)cc1 (centres undefined)
- GI50 (786-0): 16.8 µM (inactive)
- GI50 (A498): 16.1 µM (inactive)
- GI50 (A549): 19 µM (inactive)
- GI50 (ACHN): 17 µM (inactive)
- GI50 (CAKI-1): 12.9 µM (inactive)
- GI50 (COLO 205): 11.8 µM (inactive)
- GI50 (DLD-1): 9.27 µM (inactive)
- GI50 (DMS-114): 17.9 µM (inactive)
- GI50 (DMS-273): 18.9 µM (inactive)
- GI50 (EKVX): 21.1 µM (inactive)
- GI50 (HCC 2998): 17.1 µM (inactive)
- GI50 (HCT-116): 13.9 µM (inactive)
- GI50 (HCT-15): 19 µM
- GI50 (HL-60): 6.01 µM (inactive)
- GI50 (HOP-18): 22.6 µM (inactive)
- GI50 (HOP-62): 20.8 µM (inactive)
- GI50 (HOP-92): 13 µM (inactive)
- GI50 (HT-29): 29.6 µM (inactive)
- GI50 (IGROV-1): 18 µM (inactive)
- GI50 (K562): 4.02 µM (inactive)
- GI50 (KM-20L2): 17.7 µM (inactive)
- GI50 (KM12): 17.3 µM (inactive)
- GI50 (LOX IMVI): 12.1 µM (inactive)
- GI50 (LXFL 529): 14.5 µM (inactive)
- GI50 (M14): 14.3 µM (inactive)
- GI50 (M19-MEL): 16.6 µM (inactive)
- GI50 (MOLT-4): 2.23 µM (inactive)
- GI50 (Malme-3M): 14.6 µM (inactive)
- GI50 (NCI-H226): 19.4 µM (inactive)
- GI50 (NCI-H23): 14.7 µM (inactive)
- GI50 (NCI-H460): 22.3 µM (inactive)
- GI50 (NCI-H522): 10.3 µM (inactive)
- GI50 (OVCAR-3): 17.4 µM (inactive)
- GI50 (OVCAR-4): 15.6 µM (inactive)
- GI50 (OVCAR-5): 18.2 µM (inactive)
- GI50 (OVCAR-8): 10.6 µM (inactive)
- GI50 (RPMI-8226): 5.74 µM (inactive)
- GI50 (RXF 393): 8.22 µM (inactive)
- GI50 (RXF 631): 16.6 µM (inactive)
- GI50 (SF-268): 17 µM (inactive)
- GI50 (SF-295): 15.7 µM (inactive)
- GI50 (SF-539): 15.2 µM (inactive)
- GI50 (SK-MEL-28): 15.6 µM (inactive)
- GI50 (SK-MEL-5): 16 µM (inactive)
- GI50 (SK-OV-3): 21.7 µM (inactive)
- GI50 (SN12C): 15.2 µM (inactive)
- GI50 (SNB-19): 17.6 µM (inactive)
- GI50 (SNB-75): 20.6 µM (inactive)
- GI50 (SNB-78): 17 µM (inactive)
- GI50 (SR): 1.83 µM (inactive)
- GI50 (SW-620): 6.55 µM (inactive)
- GI50 (TK-10): 15.1 µM (inactive)
- GI50 (U-251): 14.8 µM (inactive)
- GI50 (UACC-257): 14.6 µM (inactive)
- GI50 (UACC-62): 15.3 µM (inactive)
- GI50 (UO-31): 18.9 µM (inactive)
- GI50 (XF498): 13.6 µM (inactive)

SMILES: COC(=O)[C@@H]1C(=O)O[C@@H](c2cc(OC)c(OC)cc2OC)[C@@H]1C(=O)OC.COC(=O)[C@H]1C(=O)O[C@@H](c2cc(OC)c(OC)cc2OC)[C@@H]1C(=O)OC
- GI50 (786-0): > 100 µM (inactive)
- GI50 (A498): > 100 µM (inactive)
- GI50 (A549): > 100 µM (inactive)
- GI50 (ACHN): > 100 µM (inactive)
- GI50 (CAKI-1): > 100 µM (inactive)
- GI50 (CCRF-CEM): > 100 µM (inactive)
- GI50 (COLO 205): > 100 µM (inactive)
- GI50 (DLD-1): > 100 µM (inactive)
- GI50 (DMS-114): > 100 µM (inactive)
- GI50 (DMS-273): > 100 µM (inactive)
- GI50 (EKVX): > 100 µM (inactive)
- GI50 (HCC 2998): > 100 µM (inactive)
- GI50 (HCT-116): > 100 µM (inactive)
- GI50 (HCT-15): > 100 µM
- GI50 (HL-60): > 100 µM (inactive)
- GI50 (HOP-62): > 100 µM (inactive)
- GI50 (HOP-92): > 100 µM (inactive)
- GI50 (HT-29): > 100 µM (inactive)
- GI50 (IGROV-1): > 100 µM (inactive)
- GI50 (K562): > 100 µM (inactive)
- GI50 (KM-20L2): > 100 µM (inactive)
- GI50 (KM12): > 100 µM (inactive)
- GI50 (LOX IMVI): > 100 µM (inactive)
- GI50 (LXFL 529): > 100 µM (inactive)
- GI50 (M14): > 100 µM (inactive)
- GI50 (M19-MEL): > 100 µM (inactive)
- GI50 (MOLT-4): > 100 µM (inactive)
- GI50 (Malme-3M): > 100 µM (inactive)
- GI50 (NCI-H226): > 100 µM (inactive)
- GI50 (NCI-H23): > 100 µM (inactive)
- GI50 (NCI-H460): > 100 µM (inactive)
- GI50 (NCI-H522): > 100 µM (inactive)
- GI50 (OVCAR-3): > 100 µM (inactive)
- GI50 (OVCAR-4): > 100 µM (inactive)
- GI50 (OVCAR-5): > 100 µM (inactive)
- GI50 (OVCAR-8): > 100 µM (inactive)
- GI50 (RPMI-8226): > 100 µM (inactive)
- GI50 (RXF 393): > 100 µM (inactive)
- GI50 (RXF 631): > 100 µM (inactive)
- GI50 (SF-268): > 100 µM (inactive)
- GI50 (SF-295): > 100 µM (inactive)
- GI50 (SF-539): > 100 µM (inactive)
- GI50 (SK-MEL-28): > 100 µM (inactive)
- GI50 (SK-MEL-5): > 100 µM (inactive)
- GI50 (SK-OV-3): > 100 µM (inactive)
- GI50 (SN12C): > 100 µM (inactive)
- GI50 (SNB-19): > 100 µM (inactive)
- GI50 (SNB-75): > 100 µM (inactive)
- GI50 (SNB-78): > 100 µM (inactive)
- GI50 (SR): > 100 µM (inactive)
- GI50 (SW-620): > 100 µM (inactive)
- GI50 (TK-10): > 100 µM (inactive)
- GI50 (U-251): > 100 µM (inactive)
- GI50 (UACC-257): > 100 µM (inactive)
- GI50 (UACC-62): > 100 µM (inactive)
- GI50 (UO-31): > 100 µM (inactive)
- GI50 (XF498): > 100 µM (inactive)

Source: ChEMBL document CHEMBL1201862, “PubChem BioAssay data set” (2004)
